Reference: PMC5382172 (Frontiers in Molecular Neuroscience, 2017)

Columns and labels:
Type in all cases: cell-based
[1] = biological target: T1, GluClβWT (GLC-2) homomeric receptor (Caenorhabditis elegans, UniProt Q17328); assay: Whole-cell patch clamp in CHO cells transfected with GluClβWT subunit alone; conditions: βWT alone, 500 nM IVM, -60 mV
T1 construct: entry codes of the full-length subunits used in this study; expressed in transfected cells; host or cells: CHO cells, transient transfection, pcDNA3.1
T1 sequence (Q17328 23-434): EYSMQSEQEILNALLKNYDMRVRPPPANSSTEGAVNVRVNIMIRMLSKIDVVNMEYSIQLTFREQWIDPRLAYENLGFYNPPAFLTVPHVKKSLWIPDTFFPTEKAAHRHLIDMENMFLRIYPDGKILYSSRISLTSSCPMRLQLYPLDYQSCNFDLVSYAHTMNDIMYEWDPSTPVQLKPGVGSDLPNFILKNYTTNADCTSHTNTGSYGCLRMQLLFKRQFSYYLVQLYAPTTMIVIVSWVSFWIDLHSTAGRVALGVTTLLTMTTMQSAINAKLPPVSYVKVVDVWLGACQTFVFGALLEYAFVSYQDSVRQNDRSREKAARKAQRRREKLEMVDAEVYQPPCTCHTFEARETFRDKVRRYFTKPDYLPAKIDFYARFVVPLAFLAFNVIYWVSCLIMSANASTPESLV
Procedure: (§1) Chinese hamster ovary (CHO) cells were cultured as previously (Bar-Lev et al., [2011]) in Dulbecco’s Modified Eagle Medium (DMEM) containing 10% fetal calf serum, 2 mM glutamax, 100 Units/ml penicillin G and 100 μg/ml streptomycin, and grown in 5% CO2 at 37°C under 90%–95% humidity. The cells were seeded on glass coverslips (13-mm diameter) placed in a 24-multiwell plate. […] For the expression of GluCl receptors, cells were transiently co-transfected with pcDNA3.1 plasmids containing the ORFs of interest using transit-LT1 transfection reagent (Mirus, Madison, WI, USA), according to the manufacturer’s protocol. The cDNAs encoding the C. elegans GluClα (GLC-1) or its mutated versions and the GluClβ (GLC-2) subunits (200–600 ng per well) were used at 1:1 ratio. The pIRES-CD8 plasmid (200 ng per well) was added to enable the visualization of the expressing cells by beads coated with anti-CD8 antibodies (Invitrogen). […]
(§2) Whole-cell patch clamp recordings were performed as described previously (Bar-Lev et al., [2011]) in CHO cells that were prepared as detailed above. […] The currents were measured with an Axopatch 200B patch-clamp amplifier (Molecular Devices, Sunnyvale, CA, USA) and a Digidata 1440A interface (Molecular Devices). […]

GluClαE273R/βWT receptor = biological target: T2, GluClαE273R/βWT receptor (Caenorhabditis elegans, UniProt G5EBR3+Q17328, E273R); assay: Whole-cell patch clamp in CHO cells, GluClαE273R/βWT receptor; conditions: 500 nM IVM, -60 mV
T2 construct: entry codes of the full-length subunits used in this study; expressed in transfected cells; host or cells: CHO cells, transient co-transfection 1:1, pcDNA3.1
Procedure: as §1, §2

GluClαY194R/βWT receptor = biological target: T3, GluClαY194R/βWT receptor (Caenorhabditis elegans, UniProt G5EBR3+Q17328, Y194R); assay: Whole-cell patch clamp in CHO cells, GluClαY194R/βWT receptor; conditions: 500 nM IVM, -60 mV
T3 construct: entry codes of the full-length subunits used in this study; expressed in transfected cells; host or cells: CHO cells, transient co-transfection 1:1, pcDNA3.1
Procedure: as §1, §2

T2 sequence (G5EBR3 21-461 E273R, one chain of several): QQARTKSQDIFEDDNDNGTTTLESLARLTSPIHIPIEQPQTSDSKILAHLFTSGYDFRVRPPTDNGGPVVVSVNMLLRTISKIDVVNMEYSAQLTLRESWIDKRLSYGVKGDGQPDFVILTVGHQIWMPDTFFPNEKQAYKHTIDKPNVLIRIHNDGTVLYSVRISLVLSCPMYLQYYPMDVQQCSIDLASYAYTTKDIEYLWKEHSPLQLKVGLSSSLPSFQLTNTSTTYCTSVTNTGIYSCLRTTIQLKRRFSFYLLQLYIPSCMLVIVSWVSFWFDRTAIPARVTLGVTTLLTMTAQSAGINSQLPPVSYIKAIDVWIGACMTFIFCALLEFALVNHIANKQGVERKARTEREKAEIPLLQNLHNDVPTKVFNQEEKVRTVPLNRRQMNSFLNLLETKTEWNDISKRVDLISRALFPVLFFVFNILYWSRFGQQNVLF
T3 sequence (G5EBR3 21-461 Y194R, one chain of several): as the sequence (G5EBR3 21-461 E273R, one chain of several) above, with Y174R, R253E counted along it

## CC[C@H](C)[C@H]1O[C@]2(CC[C@@H]1C)C[C@@H]1C[C@@H](C/C=C(\C)[C@@H](O[C@H]3C[C@H](OC)[C@@H](O[C@H]4C[C@H](OC)[C@@H](O)[C@H](C)O4)[C@H](C)O3)[C@@H](C)/C=C/C=C3\CO[C@@H]4[C@H](O)C(C)=C[C@@H](C(=O)O1)[C@]34O)O2 [IVM, ivermectin]
[1]
  IVM (500 nM) Amplitude: 0.0 ± 0.0 (10) nA
GluClαE273R/βWT receptor
  IVM (500 nM) Amplitude: 1.0 ± 0.2 nA
GluClαY194R/βWT receptor
  IVM (500 nM) Amplitude: 2.1 ± 0.5 nA
